From patent publication US20230159910A1, “DIMETHYLMONOTHIOARSINIC ACID-INDUCED MALIGNANTLY TRANSFORMED CELL LINE OF HUMAN KERATINOCYTES AND USE THEREOF” (SOOCHOW UNIVERSITY, priority 2021, published 2023)

Key:
Assay type in all cases: cell-based, human
HaCaT cells [1] = test: Cell survival of HaCaT cells by CCK-8 kit (determination of exposure dose); settings: HaCaT cells treated 24 h with 0-2 μM, FIG. 1
Procedure: Determination of appropriate exposure dose: After the HaCaT cells were treated with various concentrations (0-2 μM) of DMMTA^v for 24 h, and the cell survival was detected by the CCK-8 kit. The chronic exposure dose of DMMTA^v is determined to be 1.0 μM.

HaCaT cells [2] = test: MMP-9 secretion after persistent exposure of sub-cultured HaCaT cells; settings: persistent exposure to 1.0 μM; 21st, 28th and 35th passages; P<0.05; FIG. 2
Procedure: (§1) Two dishes of normal HaCaT cells (cell passage 0) were prepared. One dish of cells was persistently and chronically exposed to and incubated with Dulbecco's modified Eagle's medium (DMEM) with high glucose with 1.0 μM DMMTAv (containing 100 μg/ml streptomycin, 100 U/ml penicillin and 10% fetal bovine serum), and the medium was refreshed every 24 h. When the cells were grown to a confluency reaching 80%, the cells were sub-cultured and expanded up to the 35th passage. The other dish of cells was persistently and chronically exposed to and normally incubated with Dulbecco's modified Eagle's medium (DMEM) with high glucose (containing 100 μg/ml streptomycin, 100 U/ml penicillin and 10% fetal bovine serum), and the medium was refreshed every 24 h. When the cells were grown to a confluency reaching 80%, the cells were normally sub-cultured and expanded up to the 35th passage and used as the passage control group. One monitoring point is set every 7 passages to detect the cell doubling time of the 0th, 1st, 7th, 14th, 21st, 28th, 35th passages in the exposure group and the passage control group.
(§2) By detecting the changes in the matrix metalloproteinase-9 (MMP-9), the cell doubling time, the cell migration ability and cell anchoring independent growth, whether the cell undergoes malignant transformation is determined. […]

HaCaT cells [3] = test: Cell doubling time after persistent exposure of sub-cultured HaCaT cells; settings: persistent exposure to 1.0 μM; 28th, 35th passage; vs passage control, P<0.05; FIG. 3
Procedure: as §1, §2

HaCaT cells [4] = test: Cell migration ability by scratch test; settings: persistent exposure to 1.0 μM, 35th passage, vs passage control, P<0.05, FIG. 4
Procedure: as §1, §2

HaCaT cells [5] = test: Cell anchoring independent growth by soft agar colony forming test; settings: persistent exposure to 1.0 μM, 35th passage, FIG. 5
Procedure: as §1, §2

HaCaT cells [6] = test: Malignant transformation of HaCaT cells by long-term exposure; settings: long-term exposure to 1.0 μM, subculture to 35th passage
Procedure: as §1, §2

In the case of `C[As](C)(O)=S` [DMMTA^v, dimethylmonothioarsinic acid], the “dose with the highest cell survival rate (chronic exposure dose)” value (HaCaT cells [1]) is reported as 1.0 µM, the “secretion of MMP-9 compared with the passage control group” value (HaCaT cells [2]) is reported as “significantly increased” and the cell doubling time (HaCaT cells [3]) is reported as “significantly reduced”. The cell migration ability (HaCaT cells [4]) was “significantly enhanced”, the “colony formation in soft agar” value (HaCaT cells [5]) was “can form obvious colonies in soft agar” and the “colony formation rate compared with the passage control group cells” value (HaCaT cells [5]; soft agar, P<0.05) was “significantly higher”. The “induction of malignant transformation of HaCaT cells” value (HaCaT cells [6]) was “can induce HaCaT cells to undergo malignant transformation”.
